Laboratory results taken from ChEMBL document CHEMBL3875154 (Eur J Med Chem, 2016).

Key:
[1] = Inhibition of human PDE4 catalytic domain using FAM-3',5'-cAMP as substrate after 1 hr by fluorescence polarization assay
[2] = species on record: Homo sapiens; experiment: Potency index, ratio of rolipram IC50 to test compound IC50 for human PDE4 catalytic domain
[3] = molecular target: T1, cGMP-inhibited 3',5'-cyclic phosphodiesterase 3B (Homo sapiens, UniProt Q13370); experiment: Inhibition of human PDE3B at 10^4 nM using FAM-3',5'-cAMP as substrate after 1 hr by fluorescence polarization assay relative to control
[4] = molecular target: T2, High affinity 3',5'-cyclic-AMP phosphodiesterase 7A (Homo sapiens, UniProt Q13946); experiment: Inhibition of human PDE7A using FAM-3',5'-cAMP as substrate after 1 hr by fluorescence polarization assay
[5] = molecular target: T3, High affinity cAMP-specific and IBMX-insensitive 3',5'-cyclic phosphodiesterase 8A (Homo sapiens, UniProt O60658); experiment: Inhibition of human PDE8A1 using FAM-3',5'-cAMP as substrate after 1 hr by fluorescence polarization assay
[6] = molecular target: T4, 3',5'-cyclic-AMP phosphodiesterase 4B (Homo sapiens, UniProt Q07343); experiment: Inhibition of full length human PDE4B1 using FAM-3',5'-cAMP as substrate after 1 hr by fluorescence polarization assay
[7] = molecular target: T5, cAMP and cAMP-inhibited cGMP 3',5'-cyclic phosphodiesterase 10A (Homo sapiens, UniProt Q9Y233); experiment: Inhibition of human PDE10A2 at 10^4 nM using FAM-3',5'-cAMP as substrate after 1 hr by fluorescence polarization assay relative to control
T5 sequence (Q9Y233 whole entry): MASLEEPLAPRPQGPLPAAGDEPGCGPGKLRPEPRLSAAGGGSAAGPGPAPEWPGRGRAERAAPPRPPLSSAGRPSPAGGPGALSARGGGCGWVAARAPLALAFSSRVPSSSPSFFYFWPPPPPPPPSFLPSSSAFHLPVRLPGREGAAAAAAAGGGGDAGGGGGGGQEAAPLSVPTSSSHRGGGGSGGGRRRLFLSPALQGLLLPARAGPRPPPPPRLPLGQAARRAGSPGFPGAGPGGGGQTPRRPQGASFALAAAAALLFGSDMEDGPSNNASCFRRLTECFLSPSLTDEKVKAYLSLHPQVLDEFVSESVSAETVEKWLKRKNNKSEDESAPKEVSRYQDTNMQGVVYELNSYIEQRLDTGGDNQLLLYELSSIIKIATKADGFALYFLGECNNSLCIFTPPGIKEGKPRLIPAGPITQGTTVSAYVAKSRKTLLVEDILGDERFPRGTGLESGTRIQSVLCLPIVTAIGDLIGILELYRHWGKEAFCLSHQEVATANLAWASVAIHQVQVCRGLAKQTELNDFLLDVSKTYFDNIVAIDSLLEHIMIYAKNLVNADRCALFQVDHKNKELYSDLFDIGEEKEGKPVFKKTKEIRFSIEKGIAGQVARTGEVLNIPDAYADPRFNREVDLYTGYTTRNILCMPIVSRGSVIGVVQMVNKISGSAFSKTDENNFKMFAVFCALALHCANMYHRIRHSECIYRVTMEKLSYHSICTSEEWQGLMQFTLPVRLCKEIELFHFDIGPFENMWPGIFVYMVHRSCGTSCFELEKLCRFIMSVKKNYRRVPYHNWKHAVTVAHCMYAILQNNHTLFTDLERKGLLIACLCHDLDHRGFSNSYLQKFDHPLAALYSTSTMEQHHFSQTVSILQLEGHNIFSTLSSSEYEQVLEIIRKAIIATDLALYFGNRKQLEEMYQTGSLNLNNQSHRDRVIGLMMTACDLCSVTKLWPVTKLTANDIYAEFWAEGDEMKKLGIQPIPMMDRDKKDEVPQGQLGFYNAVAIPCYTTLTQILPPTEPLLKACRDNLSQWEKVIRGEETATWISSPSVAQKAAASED

[8] = molecular target: T6, cGMP-specific 3',5'-cyclic phosphodiesterase (Homo sapiens, UniProt O76074); experiment: Inhibition of human PDE5A at 10^4 nM using FAM-3',5'-cAMP as substrate after 1 hr by fluorescence polarization assay relative to control
[9] = molecular target: T7, Cone cGMP-specific 3',5'-cyclic phosphodiesterase subunit alpha' (Homo sapiens, UniProt P51160); experiment: Inhibition of human PDE6C using FAM-3',5'-cAMP as substrate after 1 hr by fluorescence polarization assay
T7 sequence (P51160 whole entry): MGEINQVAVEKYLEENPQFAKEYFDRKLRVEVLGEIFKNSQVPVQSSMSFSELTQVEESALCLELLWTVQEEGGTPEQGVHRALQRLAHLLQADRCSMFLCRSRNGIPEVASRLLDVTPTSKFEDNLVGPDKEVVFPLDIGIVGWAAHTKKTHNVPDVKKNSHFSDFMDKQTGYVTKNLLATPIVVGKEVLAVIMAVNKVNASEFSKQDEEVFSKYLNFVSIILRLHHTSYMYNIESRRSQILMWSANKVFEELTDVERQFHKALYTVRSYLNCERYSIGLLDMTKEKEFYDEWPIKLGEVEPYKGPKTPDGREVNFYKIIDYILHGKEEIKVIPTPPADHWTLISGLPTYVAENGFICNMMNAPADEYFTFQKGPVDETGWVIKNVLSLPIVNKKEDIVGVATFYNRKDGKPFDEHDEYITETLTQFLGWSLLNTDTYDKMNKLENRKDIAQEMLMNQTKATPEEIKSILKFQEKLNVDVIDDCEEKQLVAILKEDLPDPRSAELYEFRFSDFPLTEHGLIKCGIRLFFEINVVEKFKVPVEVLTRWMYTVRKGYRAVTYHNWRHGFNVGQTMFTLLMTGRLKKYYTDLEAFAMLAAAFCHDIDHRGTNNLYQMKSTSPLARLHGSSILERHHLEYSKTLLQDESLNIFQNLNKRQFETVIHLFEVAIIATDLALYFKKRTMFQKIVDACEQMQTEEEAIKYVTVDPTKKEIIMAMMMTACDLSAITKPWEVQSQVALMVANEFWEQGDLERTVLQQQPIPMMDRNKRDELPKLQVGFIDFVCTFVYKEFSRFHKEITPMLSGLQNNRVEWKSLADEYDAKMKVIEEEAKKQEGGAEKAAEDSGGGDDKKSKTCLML

[10] = molecular target: T1, cGMP-inhibited 3',5'-cyclic phosphodiesterase 3B; experiment: Inhibition of human PDE3B using FAM-3',5'-cAMP as substrate after 1 hr by fluorescence polarization assay
[11] = molecular target: T8, Dual specificity calcium/calmodulin-dependent 3',5'-cyclic nucleotide phosphodiesterase 1A (Homo sapiens, UniProt P54750); experiment: Inhibition of human PDE1A at 10^4 nM using FAM-3',5'-cAMP as substrate after 1 hr by fluorescence polarization assay relative to control
T8 sequence (P54750 whole entry): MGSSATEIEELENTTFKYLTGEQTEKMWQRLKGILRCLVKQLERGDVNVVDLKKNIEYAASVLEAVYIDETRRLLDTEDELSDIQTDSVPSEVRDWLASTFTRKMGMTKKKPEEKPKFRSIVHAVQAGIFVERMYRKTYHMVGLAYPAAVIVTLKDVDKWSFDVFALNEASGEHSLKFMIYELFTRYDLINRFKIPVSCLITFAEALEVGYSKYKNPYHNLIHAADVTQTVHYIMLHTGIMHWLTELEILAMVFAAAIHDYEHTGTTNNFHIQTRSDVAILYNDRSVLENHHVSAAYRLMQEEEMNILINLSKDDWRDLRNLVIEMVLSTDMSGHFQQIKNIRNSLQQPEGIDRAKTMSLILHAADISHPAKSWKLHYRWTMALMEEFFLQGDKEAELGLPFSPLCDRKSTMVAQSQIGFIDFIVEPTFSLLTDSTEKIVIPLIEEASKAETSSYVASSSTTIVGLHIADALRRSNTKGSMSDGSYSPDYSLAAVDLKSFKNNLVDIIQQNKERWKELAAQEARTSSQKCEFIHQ

[12] = molecular target: T9, Dual 3',5'-cyclic-AMP and -GMP phosphodiesterase 11A (Homo sapiens, UniProt Q9HCR9); experiment: Inhibition of human PDE11A using FAM-3',5'-cAMP as substrate after 1 hr by fluorescence polarization assay
[13] = molecular target: T10, High affinity cGMP-specific 3',5'-cyclic phosphodiesterase 9A (Homo sapiens, UniProt O76083); experiment: Inhibition of human PDE9A2 using FAM-3',5'-cAMP as substrate after 1 hr by fluorescence polarization assay
T10 sequence (O76083 whole entry): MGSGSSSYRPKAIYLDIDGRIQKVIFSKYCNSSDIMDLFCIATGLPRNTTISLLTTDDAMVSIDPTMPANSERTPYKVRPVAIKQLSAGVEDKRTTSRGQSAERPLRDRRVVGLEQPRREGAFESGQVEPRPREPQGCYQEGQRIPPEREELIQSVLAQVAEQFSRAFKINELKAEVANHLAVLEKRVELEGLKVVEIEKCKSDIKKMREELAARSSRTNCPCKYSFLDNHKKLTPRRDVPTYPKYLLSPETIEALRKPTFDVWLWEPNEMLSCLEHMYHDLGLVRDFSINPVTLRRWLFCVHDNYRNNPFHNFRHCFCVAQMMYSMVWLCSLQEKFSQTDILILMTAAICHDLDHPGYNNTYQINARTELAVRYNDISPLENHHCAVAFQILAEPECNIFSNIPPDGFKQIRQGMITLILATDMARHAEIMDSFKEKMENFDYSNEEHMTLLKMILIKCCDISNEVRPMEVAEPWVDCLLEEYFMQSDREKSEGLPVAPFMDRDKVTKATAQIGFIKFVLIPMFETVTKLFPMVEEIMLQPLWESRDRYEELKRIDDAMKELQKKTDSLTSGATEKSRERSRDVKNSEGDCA

[14] = molecular target: T9, Dual 3',5'-cyclic-AMP and -GMP phosphodiesterase 11A; experiment: Inhibition of human PDE11A at 10^4 nM using FAM-3',5'-cAMP as substrate after 1 hr by fluorescence polarization assay relative to control
[15] = molecular target: T11, 3',5'-cyclic-AMP phosphodiesterase 4D (Homo sapiens, UniProt Q08499); experiment: Inhibition of full length human PDE4D7 using FAM-3',5'-cAMP as substrate after 1 hr by fluorescence polarization assay
T11 sequence (Q08499 whole entry): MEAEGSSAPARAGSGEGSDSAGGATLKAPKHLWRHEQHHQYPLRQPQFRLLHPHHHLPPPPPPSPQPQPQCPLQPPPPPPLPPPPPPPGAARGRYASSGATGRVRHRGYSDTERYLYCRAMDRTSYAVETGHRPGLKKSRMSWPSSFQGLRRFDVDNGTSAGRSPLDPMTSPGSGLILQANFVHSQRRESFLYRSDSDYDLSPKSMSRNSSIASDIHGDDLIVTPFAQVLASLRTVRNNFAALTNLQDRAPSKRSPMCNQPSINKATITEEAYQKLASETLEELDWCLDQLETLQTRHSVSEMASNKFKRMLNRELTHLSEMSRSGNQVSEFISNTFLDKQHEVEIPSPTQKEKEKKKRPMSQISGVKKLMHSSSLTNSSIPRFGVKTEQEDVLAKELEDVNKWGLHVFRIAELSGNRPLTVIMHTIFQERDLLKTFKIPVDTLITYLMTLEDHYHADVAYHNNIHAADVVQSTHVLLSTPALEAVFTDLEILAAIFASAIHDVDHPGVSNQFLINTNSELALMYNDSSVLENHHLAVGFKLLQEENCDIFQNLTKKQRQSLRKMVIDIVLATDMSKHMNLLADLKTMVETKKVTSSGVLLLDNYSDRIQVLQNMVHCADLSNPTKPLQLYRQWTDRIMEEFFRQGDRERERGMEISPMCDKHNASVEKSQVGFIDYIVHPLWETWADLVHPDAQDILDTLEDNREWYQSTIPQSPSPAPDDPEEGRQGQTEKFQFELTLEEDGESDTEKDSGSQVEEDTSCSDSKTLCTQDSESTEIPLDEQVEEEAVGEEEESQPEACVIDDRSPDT

[16] = molecular target: T2, High affinity 3',5'-cyclic-AMP phosphodiesterase 7A; experiment: Inhibition of human PDE7A at 10^4 nM using FAM-3',5'-cAMP as substrate after 1 hr by fluorescence polarization assay relative to control
[17] = molecular target: T12, cGMP-dependent 3',5'-cyclic phosphodiesterase (Homo sapiens, UniProt O00408); experiment: Inhibition of human PDE2A using FAM-3',5'-cAMP as substrate after 1 hr by fluorescence polarization assay
[18] = tested on: BV-2; experiment: Antineuroinflammatory activity in mouse BV2 cells assessed as inhibition of LPS-induced TNFalpha production; type: functional, cell-based
[19] = molecular target: T6, cGMP-specific 3',5'-cyclic phosphodiesterase; experiment: Inhibition of human PDE5A using FAM-3',5'-cAMP as substrate after 1 hr by fluorescence polarization assay
[20] = molecular target: T13, 3',5'-cyclic-AMP phosphodiesterase 4A (Homo sapiens, UniProt P27815); experiment: Inhibition of full length human PDE4A4 using FAM-3',5'-cAMP as substrate after 1 hr by fluorescence polarization assay
T13 sequence (P27815 whole entry): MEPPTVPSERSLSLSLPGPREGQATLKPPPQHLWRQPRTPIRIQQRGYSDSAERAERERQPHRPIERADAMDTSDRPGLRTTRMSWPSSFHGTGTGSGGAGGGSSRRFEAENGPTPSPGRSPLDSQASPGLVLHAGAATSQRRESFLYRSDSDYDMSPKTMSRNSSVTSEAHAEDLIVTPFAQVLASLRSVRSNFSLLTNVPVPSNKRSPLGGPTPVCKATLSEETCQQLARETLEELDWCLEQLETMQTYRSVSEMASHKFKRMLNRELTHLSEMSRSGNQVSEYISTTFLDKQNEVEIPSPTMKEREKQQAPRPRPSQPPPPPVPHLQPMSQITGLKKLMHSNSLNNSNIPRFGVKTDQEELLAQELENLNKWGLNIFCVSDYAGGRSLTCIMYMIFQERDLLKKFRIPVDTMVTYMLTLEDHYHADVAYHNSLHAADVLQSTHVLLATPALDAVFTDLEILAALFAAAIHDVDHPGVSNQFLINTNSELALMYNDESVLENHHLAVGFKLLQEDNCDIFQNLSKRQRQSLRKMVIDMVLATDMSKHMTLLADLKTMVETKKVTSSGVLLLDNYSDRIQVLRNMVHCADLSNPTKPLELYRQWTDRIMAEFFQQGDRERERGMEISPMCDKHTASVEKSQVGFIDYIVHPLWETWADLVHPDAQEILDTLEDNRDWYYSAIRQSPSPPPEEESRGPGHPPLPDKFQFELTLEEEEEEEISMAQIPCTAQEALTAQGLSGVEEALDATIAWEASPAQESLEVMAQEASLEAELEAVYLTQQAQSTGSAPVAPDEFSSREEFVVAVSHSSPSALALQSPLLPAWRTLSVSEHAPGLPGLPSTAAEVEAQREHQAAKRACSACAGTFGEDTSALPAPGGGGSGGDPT

[21] = molecular target: T11, 3',5'-cyclic-AMP phosphodiesterase 4D; experiment: Inhibition of full length human PDE4D7 at 10^4 nM using FAM-3',5'-cAMP as substrate after 1 hr by fluorescence polarization assay relative to control
[22] = molecular target: T7, Cone cGMP-specific 3',5'-cyclic phosphodiesterase subunit alpha'; experiment: Inhibition of human PDE6C at 10^4 nM using FAM-3',5'-cAMP as substrate after 1 hr by fluorescence polarization assay relative to control
[23] = molecular target: T14, 3',5'-cyclic-AMP phosphodiesterase 4C (Homo sapiens, UniProt Q08493); experiment: Inhibition of full length human PDE4C1 at 10^4 nM using FAM-3',5'-cAMP as substrate after 1 hr by fluorescence polarization assay relative to control
[24] = molecular target: T12, cGMP-dependent 3',5'-cyclic phosphodiesterase; experiment: Inhibition of human PDE2A at 10^4 nM using FAM-3',5'-cAMP as substrate after 1 hr by fluorescence polarization assay relative to control
[25] = molecular target: T10, High affinity cGMP-specific 3',5'-cyclic phosphodiesterase 9A; experiment: Inhibition of human PDE9A2 at 10^4 nM using FAM-3',5'-cAMP as substrate after 1 hr by fluorescence polarization assay relative to control
[26] = molecular target: T3, High affinity cAMP-specific and IBMX-insensitive 3',5'-cyclic phosphodiesterase 8A; experiment: Inhibition of human PDE8A1 at 10^4 nM using FAM-3',5'-cAMP as substrate after 1 hr by fluorescence polarization assay relative to control
[27] = molecular target: T13, 3',5'-cyclic-AMP phosphodiesterase 4A; experiment: Inhibition of full length human PDE4A4 at 10^4 nM using FAM-3',5'-cAMP as substrate after 1 hr by fluorescence polarization assay relative to control
[28] = molecular target: T14, 3',5'-cyclic-AMP phosphodiesterase 4C; experiment: Inhibition of full length human PDE4C1 using FAM-3',5'-cAMP as substrate after 1 hr by fluorescence polarization assay
[29] = molecular target: T5, cAMP and cAMP-inhibited cGMP 3',5'-cyclic phosphodiesterase 10A; experiment: Inhibition of human PDE10A2 using FAM-3',5'-cAMP as substrate after 1 hr by fluorescence polarization assay
[30] = molecular target: T8, Dual specificity calcium/calmodulin-dependent 3',5'-cyclic nucleotide phosphodiesterase 1A; experiment: Inhibition of human PDE1A using FAM-3',5'-cAMP as substrate after 1 hr by fluorescence polarization assay
[31] = molecular target: T4, 3',5'-cyclic-AMP phosphodiesterase 4B; experiment: Inhibition of full length human PDE4B1 at 10^4 nM using FAM-3',5'-cAMP as substrate after 1 hr by fluorescence polarization assay relative to control

SMILES	IC50 [1] [nM]	Ratio IC50 [2]	inhibition [3] [%]	IC50 [4] [nM]	IC50 [5] [nM]	IC50 [6] [nM]	inhibition [7] [%]	inhibition [8] [%]	IC50 [9] [nM]	IC50 [10] [nM]	inhibition [11] [%]	IC50 [13] [nM]	inhibition [14] [%]	IC50 [15] [nM]	inhibition [16] [%]	IC50 [17] [nM]	IC50 [19] [nM]	IC50 [20] [nM]	inhibition [21] [%]	inhibition [22] [%]	further results
O=C(Nc1ccccc1)c1ccc(OC(F)F)c(OCC2CC2)c1	220	< 18																			
O=C(Nc1ccccc1Cl)c1ccc(OC(F)F)c(OCC2CC2)c1	90	< 18	13	> 100000	> 100000	166	3	12	> 100000	> 100000	6	> 100000	5	39	7	> 100000	> 100000	126	99	2	IC50 [12]: > 100000 nM; inhibition [18]: Dose-dependent effect; inhibition [23]: 96%; inhibition [24]: 8%; inhibition [25]: 3%; inhibition [26]: 3%; inhibition [27]: 100%; IC50 [28]: 501 nM; IC50 [29]: > 100000 nM; IC50 [30]: > 100000 nM; inhibition [31]: 98%
COc1ccc(C(=O)Nc2cccnc2)cc1OC1CCCC1	310	< 18																			
O=C(Nc1cccnc1)c1ccc(OC(F)F)c(OCC2CC2)c1	69	< 18	6	> 100000	> 100000	34	14	23	> 100000	> 100000	20	> 100000	85	71	7	> 100000	> 100000	76	100	28	inhibition [23]: 98%; inhibition [24]: 23%; inhibition [25]: 8%; inhibition [26]: 22%; inhibition [27]: 98%; IC50 [28]: 269 nM; IC50 [29]: > 100000 nM; IC50 [30]: > 100000 nM; inhibition [31]: 99%
COc1ccc(C(=O)Nc2cccnc2)cc1OCC1CC1	360	< 18																			
COc1ccc(C2CNC(=O)C2)cc1OC1CCCC1 (configuration not stated) [ROLIPRAM]	550																				
O=C(Nc1ccccc1Cl)c1ccc(OC(F)F)c(OC2CCCC2)c1	30	< 18	6	> 100000	> 100000	144	6	7	> 100000	> 100000	3	> 100000	7	22	3	> 100000	> 100000	95	99	2	IC50 [12]: > 100000 nM; inhibition [23]: 97%; inhibition [24]: 28%; inhibition [25]: 6%; inhibition [26]: 10%; inhibition [27]: 98%; IC50 [28]: 400 nM; IC50 [29]: > 100000 nM; IC50 [30]: > 100000 nM; inhibition [31]: 100%

Second part, led by results:

IC50 [1] [nM]	Ratio IC50 [2]	inhibition [3] [%]	IC50 [4] [nM]	IC50 [5] [nM]	IC50 [6] [nM]	inhibition [7] [%]	inhibition [8] [%]	IC50 [9] [nM]	IC50 [10] [nM]	inhibition [11] [%]	IC50 [13] [nM]	inhibition [14] [%]	IC50 [15] [nM]	inhibition [16] [%]	IC50 [17] [nM]	IC50 [19] [nM]	IC50 [20] [nM]	inhibition [21] [%]	inhibition [22] [%]	SMILES	further results
9700																				COc1ccc(C(=O)N(C)c2ccccn2)cc1OC1CCCC1	
25100																				COc1ccc(C(=O)N(C)c2ccccn2)cc1OCC1CC1	
140	< 18	6	> 100000	> 100000	39	9	12	> 100000	> 100000	0	> 100000	76	68	3	> 100000	> 100000	117	99	16	O=C(Nc1cccnc1)c1ccc(OC(F)F)c(OC2CCCC2)c1	inhibition [23]: 98%; inhibition [24]: 26%; inhibition [25]: 4%; inhibition [26]: 9%; inhibition [27]: 98%; IC50 [28]: 294 nM; IC50 [29]: > 100000 nM; IC50 [30]: > 100000 nM; inhibition [31]: 99%
1400																				CN(C(=O)c1ccc(OC(F)F)c(OC2CCCC2)c1)c1ccccn1	
240	< 18																			O=C(Nc1ccccc1)c1ccc(OC(F)F)c(OC2CCCC2)c1	
2500																				CN(C(=O)c1ccc(OC(F)F)c(OCC2CC2)c1)c1ccccn1	
